Reference: patent US20240226234A1, “WNT5A PEPTIDES FOR THE TREATMENT OF ACUTE M[…]” (W[…], priority 2021, published 2024)
No end group written: not given here. *: point of attachment. For = O=C*

Legend:
Type in all cases: cell-based, human
[1] = system: U937 cells; assay: ROS production by flow cytometry, U937 cells; conditions: 72 h; for ROS production (MFI): U937, 2D culture on HS5 stromal cells; for ROS production (mean fluorescence intensity): U937, monoculture
Protocol: (§1) A panel of human myeloid leukemia cell lines (HL60, K562, KG1a, THP1 and U937) and HS-5 mesenchymal stromal cells lineage were cultured in Roswell Park Memorial Institute medium-1640 (RPMI; Sigma) containing 10% Fetal Bovine Serum (Gibco), glutamine (2 mM; Sigma), penicillin (100 μg/mL; Sigma), streptomycin (100 μg/mL; Sigma), and amphotericin B (0.25 μg/mL; Gibco). The cells were maintained in a humidified atmosphere at 37° C. and 5% CO2 and the experiments were performed when they reached exponential growth. For the assays, cells were seeded on a 24-well plate and treated or not with Foxy-5 for 72 hours.
Cells treated with Foxy or with vehicle were collected and intracellular ROS generation was measured by flow cytometry following staining with DCFDA ([…]; Sigma). Acquisition of cells was performed on a FACScalibur flow cytometer (BD) and analysis was carried out using the FlowJo software.
Leukemia cell lines were treated for 72 h with Foxy-5, at doses of 50 and 100 μM, or vehicle, stained with DCFHA dye, and analyzed by flow cytometry.

[2] = system: U937 cells; assay: Transwell chemotaxis assay toward CXCL12, U937 cells; conditions: U937, Foxy-5 100 μM 72 h pretreatment, CXCL12 100 ng/mL, 24 h
Protocol: Leukemic cell lines, pretreated or not with Foxy-5 (72 hours of stimulation) were tested for chemotaxis in Transwell-based assays for Chemotaxis (6.5 mm diameter, 8 μm pore size; Corning). Polycarbonate membranes were incubated with poly-L-lysine (1 mg/mL) for 1 hour at 37° C. followed by saline buffer washing. Briefly, cells were collected, washed with media containing bovine serum albumin (0.1% BSA; Sigma), and then seeded at a density of 5×10^5 cells into the upper chamber of the transwell. The lower chamber was filled with media containing 0.5% BSA (negative control), media containing 10% FBS (positive control) and media 5 containing 0.5% BSA with CXCL12 (100 ng/ml; Peprotech) (Melo et al., 2014). Following 6 h or 24 h of incubation at 37° C., cells that migrated into the lower chamber were collected, centrifuged, resuspended in saline buffer and counted. The number of migrated cells was expressed as a percentage of the input, i.e., the cells number applied directly to the lower compartment in parallel wells. The migration of cells was normalized to 100%+/−standard deviation (SD) of triplicates (Favaro et al., 2013).
We investigated whether restoring of WNT5A could enable the modulation CXCL12-induced chemotaxis of leukemia cells. […]

[3] = system: K562 cells; assay: Actin polymerization assay, K562 cells; conditions: K562, Foxy-5 100 μM 72 h
Protocol: F-actin polymerization was analyzed in treated leukemic cell lines using AlexaFluor 633-labeled phalloidin (A22284, Invitrogen) before and after CXCL12 stimulation. The cells were stimulated with CXCL12 (300 ng/ml; Peprotech) in serum-free media at 37 °C for 30 and 120 seconds. The reaction was stopped by adding 3 volumes of paraformaldehyde (3.7%) at room temperature for 10 min, then washed and permeabilized on ice. Cells were stained with 633-phalloidin (2 mg/mL). Flow cytometric data were analyzed using a FACS flow cytometer (BD) followed by FlowJo software analysis. The F-actin content obtained were normalized calculating the ratio between each stimulated cells-mean fluorescence intensity (MFI) values and the nonstimulated cells MFI from the basal levels of the control cells and expressed as fold change.
Therefore, we performed a flow cytometry analysis to evaluate whether Foxy-5 treatment would be able to disrupt actin polymerization. Leukemia cell lines were treated with Foxy-5 (100 μM) or vehicle during 72 hours, stimulated with CXCL12 (300 ng/ml) for 30 or 120 seconds, and stained with […] for detection of actin polymerization by flow cytometry. […] Thus, a significant reduction of actin polymerization was shown after Foxy-5 treatment when compared to untreated cells after 30 seconds of CXCL12 induction (P<. 001).

[4] = system: U937 cells; assay: Autophagy assay (acridine orange), U937 cells; conditions: U937, 2D culture, 72 h
Protocol: as §1
(§2) Cells treated with Foxy or with vehicle were collected and acids vesicles were measured by flow cytometry following staining with Acridine Orange (0.01 mg/mL; Sigma). Acquisition of cells was performed on a FACScalibur flow cytometer (BD) and analysis was carried out using the FlowJo software 4.
(§3) As autophagy is required for sustaining leukemia cell growth by induction of ROS production, we measured the levels of acidic granule formation by flow cytometry after Foxy-5 or vehicle treatment. […]

[5] = system: HL60 cells; assay: Autophagy assay (acridine orange), HL60 cells; conditions: HL60, 2D culture, 72 h
Protocol: as §1, §2, §3

[6] = system: KG1a cells; assay: Autophagy assay (acridine orange), KG1a cells; conditions: 2D culture, 72 h
Protocol: as §1, §2, §3

[7] = system: K562 cells; assay: Autophagy assay (acridine orange), K562 cells; conditions: K562, 2D culture, 72 h
Protocol: as §1, §2, §3

Foxy-5: Formylated hexapeptide fragment of WNT5A: MDGCEL (SEQ. ID. NO. 3) with methionine in position 1 as N-formyl methionine; WNT5A-mimicking compound (For-MDGCEL; listed as Homo sapiens)
ROS production (MFI) ([1]; Foxy-5 50 μM): 20.90 (range 19.90-22.63) MFI
ROS production (MFI) ([1]; Foxy-5 100 μM): 23.50 (range 21.70-23.80) MFI
ROS production (mean fluorescence intensity) ([1]; Foxy-5 50 μM): 7.32 (range 4.80-8.67) MFI
ROS production (mean fluorescence intensity) ([1]; Foxy-5 100 μM): 7.09 (range 4.70-8.40) MFI
CXCL12-induced chemotaxis (migrated cells as percentage of the input, average) [2]: 40.35%
F-actin content following CXCL12 stimulation ([3]; CXCL12 300 ng/ml for 30 seconds): 1.37 fold increase
F-actin content following CXCL12 stimulation ([3]; CXCL12 300 ng/ml for 120 seconds): 1.31 fold increase
autophagy (acidic granule formation, acridine orange, average) ([4]; Foxy-5 50 μM): 9.40 (range 7.68-11.00) MFI
autophagy (acidic granule formation, acridine orange, average) ([4]; Foxy-5 100 μM): 6.30 (range 4.80-8.31) MFI
autophagy (acidic granule formation, acridine orange, average) ([5]; Foxy-5 50 μM): 10.04 (range 7.20-11.93) MFI
autophagy (acidic granule formation, acridine orange, average) ([5]; Foxy-5 100 μM): 6.60 (range 5.42-6.69) MFI
autophagy (acidic granule formation, acridine orange, average) ([6]; Foxy-5 50 μM): 27.30 (range 27.20-29.83) MFI
autophagy (acidic granule formation, acridine orange, average) ([6]; Foxy-5 100 μM): 21.55 (range 19.05-22.40) MFI
autophagy (acidic granule formation, acridine orange, average) ([7]; Foxy-5 50 μM): 21.32 (range 20.46-22.28) MFI
autophagy (acidic granule formation, acridine orange, average) ([7]; Foxy-5 100 μM): 19.80 (range 19.70-20.40) MFI
